Assay results: US9128097B2, “Method and kit for assessing viable cells” (ChemoMetec A/S, priority 2008, dated 2015)

Experiments:
Jurkat (JM) cells = test: Staining of proliferating Jurkat cells with labelling agent and propidium iodide, fluorescence microscopy; assay type: cell-based; details: 10 μL agent (100 μg pr. mL DMSO) added to 90 μL cells, only exception PI positive cells
Method: (§1) Materials and Methods. Jurkat (JM) cells were grown at 37° C. in a humidified air atmosphere with 5% CO2 in RPMI (Invitrogen, #61870) supplemented with 10% heat-inactivated fetal bovine serum (Invitrogen, #10108-165). 90 μL proliferating Jurkat cells (cell density 1.2×10^6, 99% viable determined using the NC-100 NucleoCounter system following the manufacturer's (ChemoMetec A/S) protocol) were added 10 μL NAM (N-(9-acridinyl)maleimide, Sigma, #01665, CAS no. 49759-20-8) dissolved in DMSO (100 μg NAM pr. mL DMSO) and mixed by pipetting. Cells were loaded into a NucleoCassette, containing the DNA stain propidium iodide (PI). The cells were investigated using an Olympus IX50 fluorescence microscope, and images were captured using a Lumenera CCD camera and in-house developed software. PI and NAM fluorescence were detected using, respectively, U-MWG2 (green long pass: 510-550 nm) and U-MNUA2 (UV band pass, 330-385 nm) filter cubes (Olympus).
as §1, with “1.0×10^6,” for “1.2×10^6,”, “(ChemoMetec)” for “(ChemoMetec A/S)”, “CPM (7-diethylamino-3-[4′-maleimidylphenyl]-4-methylcoumarin, Chemodex Ltd.,” for “NAM (N-(9-acridinyl)maleimide, Sigma, #01665,”, “76877-33-3)” for “49759-20-8)”, “CPM” for “NAM”
as §1, with “1.1×10^6, 98%” for “1.2×10^6, 99%”, “(ChemoMetec)” for “(ChemoMetec A/S)”, “PM (N-(1-Pyrenyl)maleimide, Sigma P7908” for “NAM (N-(9-acridinyl)maleimide, Sigma, #01665,”, “42189-56-0)” for “49759-20-8)”, “PM” for “NAM”, “Cells were loaded into a NucleoCassette, containing the DNA stain propidium iodide (PI).” left out
Materials and Methods. […] 90 μL proliferating Jurkat cells (cell density 1.1×10^6, 98% viable determined using the NC-100 NucleoCounter system following the manufacturer's (ChemoMetec) protocol) were added 10 μL CPI (7-diethylamino-3-((4′-(iodoacetyl)amino)phenyl)-4-methylcoumarin, Sigma 78264 CAS no. 76877-34-4) dissolved in DMSO (100 μg CPI pr. mL DMSO) and mixed by pipetting. […] The cells were investigated using an Olympus IX50 fluorescence microscope, and images were captured using a Lumenera CCD camera and in-house developed software. PI and CPI fluorescence were detected using, respectively, U-MWG2 (green long pass: 510-550 nm) and U-MNUA2 (UV band pass, 330-385 nm) filter cubes (Olympus). […]

[1] = system: bone marrow derived dendritic cells (BM-DCs); test: Staining of bone marrow derived dendritic cells with labelling agent and PI; assay type: cell-based, murine; details: dendritic cells 97% viable; 10 μL mCB (100 μg pr. mL DMSO) to 90 μL cells; incubated at room temperature for 1 hour
Text: Materials and Methods. Dendritic cells were developed from murine bone marrow derived cells as described by “Lutz, M. B., N. Kukutsch, A. L. Ogilvie, S. Rossner, F. Koch, N. Romani, and G. Schuler. 1999. An advanced culture method for generating large quantities of highly pure dendritic cells from mouse bone marrow. J Immunol Methods 223:77-92”. Bone marrow cells were harvested aseptically in the laminar flow hood as described in example 11. Washed and resuspended bone marrow cells were resuspended in RPMI 1640 (Invitrogen, #61870) supplemented with 10% heat-inactivated fetal bovine serum (Invitrogen, #10108-165), 100 U/mL penicillin and 100 μg/mL streptomycin (Invitrogen, #15140-122). […] 90 μL dendritic cells (cell density 1.2×10^6, 97% viable determined using the NC-100 NucleoCounter system following the manufacturer's (ChemoMetec A/S) protocol) were added 10 μL NAM (N-(9-acridinyl)maleimide, Sigma, #01665, CAS no. 49759-20-8) dissolved in DMSO (100 μg NAM pr. mL DMSO) and mixed by pipetting. […] The cells were investigated using an Olympus IX50 fluorescence microscope, and images were captured using a Lumenera CCD camera and in-house developed software. PI and NAM fluorescence were detected using, respectively, U-MWG2 (green long pass: 510-550 nm) and U-MNUA2 (UV band pass, 330-385 nm) filter cubes (Olympus). […]

HEK293 cells = test: NAM/PI staining of outgrown HEK293 cells, fluorescence microscopy; assay type: cell-based, Human; details: HEK293 cells treated with 0.25% Triton X-100; 10 μg/mL NAM
Method: Materials and Methods. HEK293 cells were grown at 37° C. in a humidified air atmosphere with 5% CO2 in DMEM (Invitrogen, #31966) supplemented with 10% heat-inactivated fetal bovine serum (Invitrogen, #10108-165). Cells were harvested with 0.5 mL of trypsin (Invitrogen, #25300) and neutralized with 5 mL medium (DMEM+10% FCS) two days after they had reached full confluency. These outgrown HEK293 cells (cell density 1.6×10^6, 78% viable determined using the NC-100 NucleoCounter system following the manufacturer's (ChemoMetec) protocol) were stained with 10 μg/mL NAM (Sigma, #01665). Another cell sample were treated with 0.25% Triton X-100 (Sigma, #T9284) and hereafter added 10 μg/mL NAM. After staining, each cell sample was loaded into a NucleoCassette, containing the DNA stain propidium iodide (PI). The cells were investigated using an Olympus IX50 fluorescence microscope, and images were captured using a Lumenera CCD camera and in-house developed software. PI and NAM fluorescence were detected using, respectively, U-MWG2 (green long pass: 510-550 nm) and U-MNUA2 (UV band pass, 330-385 nm) filter cubes (Olympus).

Row | SMILES | staining of cells (UV filter) versus PI positive cells (Jurkat (JM) cells) | other results
1 | O=C1C=CC(=O)N1c1ccc2ccc3cccc4ccc1c2c34 [PM, N-(1-Pyrenyl)maleimide] | nearly all cells were stained by PM | 
2 | Cc1c(C)n2c(CCl)c(C)c(=O)n2c1=O [mCB, monochlorobimane] |  | staining of cells (UV filter) versus PI positive cells [1]: nearly all the dendritic cells were stained by mCB
3 | CCN(CC)c1ccc2c(C)c(-c3ccc(N4C(=O)C=CC4=O)cc3)c(=O)oc2c1 [CPM, 7-diethylamino-3-[4′-maleimidylphenyl]-4-methylcoumarin] | nearly all cells were stained by CPM | 
4 | CC[N+](C)(CC)CCC[n+]1c(-c2ccccc2)c2cc(N)ccc2c2ccc(N)cc21.[I-].[I-] [PI, propidium iodide] |  | staining of Triton X-100 treated cells (HEK293 cells): PI positive
5 | CCN(CC)c1ccc2c(C)c(-c3ccc(NC(=O)CI)cc3)c(=O)oc2c1 [CPI, 7-diethylamino-3-((4′-(iodoacetyl)amino)phenyl)-4-methylcoumarin] | nearly all cells were stained by CPI | 
